Experiment: Stability constant of the drug in relation to cyclodextrin (solubility method, Higuchi et al.)
Format: physicochemical
Conditions: 25°C, 24 hours shaking
Protocol: The stability constant of the drug in relation to cyclodextrin calculated by the solubility method is determined in the manner that, with the concentration of each drug being kept unchanged, a mixture of the drug and a cyclodextrin solution of varying concentration is shaken on a shaker at the rate of 200 cycles/min at 25°C for 24 hours to construct a solubility phase diagram of the drug at saturation in cyclodextrin solution and the stability constant is calculate by the method of Higuchi et al. [Advances in Analytical Chemistry and Instrumentation, Vol. 4, 144-148 (1965)].
The stability constant of the drug in relation to cyclodextrin was calculated applying the formula (8) on page 146, in "Advances in Analytical Chemistry and Instrumentation", Vol. 4, (1965).

## CC(=O)[C@@]1(O)CC[C@H]2[C@@H]3C[C@H](C)C4=CC(=O)C=C[C@]4(C)[C@@]3(F)[C@@H](O)C[C@@]21C [Fluorometholone]
  Stability Constant α-CyD: 54
  Stability Constant β-CyD: 911

## CCOC(=O)O[C@]1(C(=O)OCCl)CC[C@H]2[C@@H]3CCC4=CC(=O)C=C[C@]4(C)[C@H]3[C@@H](O)C[C@@]21C [Loteprednol Etabonate]
  Stability Constant α-CyD: 114
  Stability Constant β-CyD: 305

From EP0709099A2, “An aqueous nasal suspension comprising cyclodextrin” (Senju Pharmaceutical Co., Ltd., priority 1994, dated 1996)
